Values joined by “and” are separate entries in the source; they are usually repeats but may differ in a detail not shown here. Identical values can stand only once.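 48-hour exposure; five concentrations; linearly interpolated endpoints. At the GI50, growth is halved. TGI is the concentration that stops growth completely.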
Experiments:
Assay in all cases: NCI-60 cell line screen, 48 h
[1] = test system: HCT-116 colon
[2] = test system: HL-60(TB) leukemia
[3] = test system: MCF7 breast
[4] = test system: MOLT-4 leukemia
[5] = test system: NCI-H460 lung
[6] = test system: OVCAR-5 ovarian
[7] = test system: SF-539 CNS
[8] = test system: SNB-75 CNS
[9] = test system: SW-620 colon
[10] = test system: UACC-257 melanoma

| Structure (SMILES) | GI50 [1] | TGI [1] | GI50 [2] | TGI [2] | GI50 [3] | TGI [3] | GI50 [4] | TGI [4] | GI50 [5] | TGI [5] | GI50 [6] | TGI [6] | GI50 [7] | TGI [7] | GI50 [8] | TGI [8] | GI50 [9] | TGI [9] | GI50 [10] | TGI [10] |
| --- | --- | --- | --- | --- | --- | --- | --- | --- | --- | --- | --- | --- | --- | --- | --- | --- | --- | --- | --- | --- |
| COc1ccc(-n2cc(-c3cc(OC)c(OC)c(OC)c3)nc2SCc2ccccc2)cc1OC | 49.1 µM | > 100 µM | 48.2 µM | > 100 µM | 34.6 µM | > 100 µM | 24.6 µM | > 100 µM | > 100 µM | > 100 µM | > 100 µM | > 100 µM | > 100 µM | > 100 µM | 34.4 µM | > 100 µM | > 100 µM | > 100 µM | 77.9 µM | > 100 µM |
| COc1ccc(S(=O)(=O)Nc2cc(/C=C\c3cc(OC)c(OC)c(OC)c3)ccc2OC)cc1 | 0.0797 µM | > 100 µM | 0.195 µM | 0.681 µM | 0.0426 µM | > 100 µM | 0.388 µM | > 100 µM | 0.178 µM | 11.7 µM | 0.323 µM | > 100 µM | 0.126 µM | 0.713 µM | 0.0708 µM | 91.4 µM | 0.0785 µM | > 100 µM | 2.98 µM | 93.4 µM |
| COc1ccc(C(=O)/C=C/c2ccc3c(c2)OCO3)c(OCc2ccccc2)c1 |  | > 100 µM |  | 6.47 µM |  | > 100 µM |  | > 26.4 µM |  | > 100 µM |  | > 100 µM |  | > 100 µM |  | > 100 µM |  | > 100 µM |  | > 100 µM |
| NC1=C(c2nc(-c3ccccc3)cs2)C(c2ccc(Br)cc2)c2c(c3ccccc3oc2=O)O1 (stereo not given) | 79.6 µg/mL | > 150 µg/mL | 21.9 µg/mL | 97.2 µg/mL | > 150 µg/mL | > 150 µg/mL | 33 µg/mL | 118 µg/mL | 66.8 µg/mL | > 150 µg/mL | > 150 µg/mL | > 150 µg/mL | 104 µg/mL | > 150 µg/mL | 2.39 µg/mL | 36.7 µg/mL | 73.9 µg/mL | > 150 µg/mL | > 150 µg/mL | > 150 µg/mL |
| CN(C)CCCN1c2ccccc2C(C)(C)c2ccccc21 |  | 27.9 µM |  | 33.6 µM |  | 28 µM |  | 26.6 µM |  | 26.4 µM |  | 27.2 µM |  | 28.4 µM |  | 24.4 µM |  | 52.4 µM |  | 23.9 µM |
| COc1ccc(/C=C(\C#N)n2nnc3ccccc32)cc1 | 0.0955 µM | 2.15 µM | 0.126 µM |  | 0.328 µM | > 100 µM | 0.542 µM | > 44.9 µM | 0.322 µM | 7.88 µM | 0.463 µM |  | 0.252 µM | 0.869 µM | 0.0327 µM | 0.337 µM | 0.0603 µM | > 100 µM | 4.92 µM | > 100 µM |
| COc1ccccc1N1CCN(CCc2c[nH]c3cc4c(cc23)OCO4)CC1 | 10.9 µM | > 100 µM | 10.4 µM | > 100 µM | 33.3 µM | > 100 µM | 38.8 µM | > 100 µM | 15.5 µM | > 100 µM | 15.5 µM | > 100 µM | 20.2 µM | > 100 µM | 25 µM | > 100 µM | 22 µM | > 100 µM | 26.5 µM | 88.9 µM |
| Oc1[nH]c2c(Br)cccc2c1C1=Nc2ccccc2/C1=N/OCCN1CCCC1 | 0.448 µM | 1.78 µM | 1.04 µM and 0.998 µM |  | 0.781 µM and 0.57 µM | > 100 µM | 0.354 µM | 3.18 µM | 0.325 µM | 2.4 µM | 1.21 µM and 1.91 µM | 4.82 µM and 14.7 µM | 0.557 µM | 2.05 µM | 1.14 µM | 3.64 µM | 1.49 µM and 0.542 µM |  | 2.67 µM |  |
| COc1ccc(NC(=O)COCCOCCNC[C@@H]2C(=O)O[C@H]3[C@H]2CC/C(COC(=O)OC/C2=C/CC[C@@]4(C)O[C@H]4[C@H]4OC(=O)[C@@H](CN(C)C)[C@@H]4CC2)=C\CC[C@@]2(C)O[C@@H]32)c(O)c1C(N)=O | 3.5 µM | 9.86 µM | 0.77 µM | 1.91 µM | 1.63 µM | 9.01 µM | 1.63 µM | 6 µM | 16.5 µM | > 50 µM | 8.9 µM | 17.4 µM | 3.42 µM | 9.92 µM | 10.2 µM | > 50 µM | 1.14 µM | 2.87 µM | 6.1 µM | 13.2 µM |
| COc1cccc(OCCCN)c1-c1cc(Nc2cnc(C#N)cn2)n[nH]1 | 0.105 µM and 0.236 µM | 12.9 µM | 0.00877 µM and 0.0231 µM | 1.14 µM | 0.00304 µM | 18.2 µM | 0.00391 µM | 5.69 µM | 0.0487 µM and 0.0436 µM | 12.6 µM | 0.0381 µM and 0.043 µM | 15.2 µM | 0.00366 µM | 0.0627 µM and 0.12 µM | 2.07 µM | 13.9 µM | 0.0573 µM and 0.054 µM | 12 µM | 0.142 µM | 13.1 µM |
| Cc1cc(Cc2cc(C)cc(C(C)(C)C)c2O)c(O)c(Cc2cc(C)cc(C(C)(C)C)c2O)c1 |  | 5.44 µM |  | 5.23 µM |  | 7.93 µM |  | 5.83 µM |  | 4.22 µM |  | 14.2 µM |  | 6.54 µM |  | 14.2 µM |  | 16.7 µM |  | 5.3 µM |
| Cc1cc(NCc2cc(Nc3ccnc4cc(Cl)ccc34)ccc2F)nc(N2CCN(C)CC2)n1 | 1.25 µM | 2.88 µM | 1.68 µM | 3.67 µM | 1.94 µM | 5.65 µM | 1.39 µM | 8.17 µM | 1.5 µM | 3.31 µM | 2.05 µM | 5.17 µM | 1.79 µM | 3.37 µM | 1.21 µM | 3.16 µM | 1.63 µM | 4.23 µM | 1.87 µM | 3.68 µM |
| CN(C)CC1C(=O)O[C@H]2[C@H]1CC/C(COC(=O)c1cc3ccccc3[nH]1)=C\CC[C@@]1(C)O[C@@H]21 (stereo not given in full) | 0.577 µM | 1.57 µM | 0.663 µM | 3.53 µM | 1.01 µM | 4.55 µM | 1.98 µM | 7.32 µM | 7.35 µM | 25.6 µM | 2.37 µM | 6.15 µM | 2.2 µM | 5.86 µM | 2.18 µM | 10.4 µM | 1.75 µM | 4.41 µM | 1.47 µM | 3.24 µM |
| COc1cc(Cl)cc(-c2nn(-c3cccc(NC(=O)Nc4cc(C(F)(F)F)cc(C(F)(F)F)c4)c3)cc2-c2ccncc2)c1 | 0.356 µM | 1.46 µM | 0.32 µM | 2.49 µM | 0.439 µM | 9.3 µM | 0.33 µM | 1.92 µM | 0.374 µM | 1.71 µM | 1.6 µM | 10.1 µM | 1.48 µM | 3.61 µM | 1.18 µM | 6.86 µM | 0.422 µM | 2.72 µM | 0.686 µM | 2.68 µM |

— PubChem BioAssay (NCI)
